Measured values reported in patent US20210228562A1, “IRAK DEGRADERS AND USES THEREOF” (Kymera Therapeutics, Inc., priority 2019, published 2021).
Read-outs that look alike come from different tables or passages of the source.

Columns and labels:
Format in all cases: cell-based
IRAK4 = molecular target: T1, IRAK4 (Homo sapiens, UniProt Q9NWZ3); test: IRAK4 MSD Degradation in OCI-LY10; conditions: OCI-LY10 cells
T1 construct: endogenous in cells; host or cells: OCI-LY10
T1 sequence (Q9NWZ3 1-460): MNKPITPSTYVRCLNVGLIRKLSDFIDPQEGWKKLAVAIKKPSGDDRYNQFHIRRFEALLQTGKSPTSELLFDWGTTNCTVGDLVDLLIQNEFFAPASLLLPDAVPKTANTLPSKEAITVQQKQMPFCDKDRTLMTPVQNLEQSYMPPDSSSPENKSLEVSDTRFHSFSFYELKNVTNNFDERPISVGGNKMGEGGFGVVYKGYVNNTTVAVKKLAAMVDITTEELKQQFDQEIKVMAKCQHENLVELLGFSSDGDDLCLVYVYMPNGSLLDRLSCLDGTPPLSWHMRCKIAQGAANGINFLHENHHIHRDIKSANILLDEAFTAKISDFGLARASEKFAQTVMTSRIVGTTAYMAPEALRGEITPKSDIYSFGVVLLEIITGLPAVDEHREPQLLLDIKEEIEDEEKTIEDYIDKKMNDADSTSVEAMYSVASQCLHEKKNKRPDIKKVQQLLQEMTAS
Method: Degradation of IRAK4 in OCI-LY10 was quantitatively measured using Meso Scale Discovery technology. OCI-LY10 cells were seeded in 96-well plates (Corning 3799) with a density of 300,000 cells per well in 100 μL fresh media. Compounds were then added to the assay plates with a final top concentration of 1 to 10 μM in a 1:3 dilution series with total of 8 doses. The assay plates were then incubated for 4 to 24 hours at 37° C. under 5% CO2. The assay plates were then centrifuged for 5 minutes and the cell pellets were treated with 100 μL/well RIPA lysis buffer (Boston BioProducts BP-115D) with proteinase inhibitors. To prepare MSD assay plates (Meso Scale Discovery Catalog number L15XA-3), the plates were coated with 2 μg/mL capture antibody (mouse Anti-IRAK4 antibody [2H9], ab119942) in PBS, at 40 μL/well. The plates were then incubated overnight at 4° C., washed 3 times with 150 μL/well TBST buffer (Cell Signaling Technology, Catalog number 9997S) and blocked with 150 μL/well blocking buffer (Meso Scale Discovery Catalog number R93BA-4). Cell lysates were then added to MSD assay plates and the plates were incubated at room temperature for 1 hour. The plates were then washed 3 times with 150 μL/well TBST buffer and 25 μL/well primary detection antibody (rabbit Anti-IRAK4 antibody [Y279], from Abcam. Catalog number ab32511, 1 μg/mL). The assay plates were then incubated at room temperature for 1 hour, washed 3 times with 150 μL/well TBST buffer and 25 μL/well secondary detection antibody, SULFO-TAG anti-rabbit antibody were added (anti rabbit antibody from Meso Scale Discovery, Catalog number R32AB-1, 1 μg/mL). The assay plates were then incubated at room temperature for 1 hour, washed 3 times with 150 μL/well TBST buffer, and 150 μL/well MSD reading buffer (Meso Scale Discovery catalog number R92TC-2) was added. The plates were then analyzed by a MSD reader (Meso Scale Discovery, Model Quick Plex SQ 120). The data was then analyzed by software Prism 7.0 from GraphPad and the dose-depended IRAK4 degradation were fit using a three-parameter logistic equation to calculate DC50.

[1] = molecular target: T2, Ikaros (protein product of gene IKZF1) (Homo sapiens, UniProt Q13422+Q96SW2); test: Quantification of Ikaros degradation in OCI-LY10 cells (quantitative immunoblotting); conditions: 6 h treatment
T2 construct: endogenous in cells; host or cells: OCI-LY10
Method: (§1) Degradation of Ikaros (protein product of gene IKZF1) and Aiolos (protein product of gene IKZF3) were determined by quantitative immunoblotting as follows. OCI-LY10 cells, 2×10^6 cells/well, were treated with listed concentrations of IRAK4 degraders or control compounds in 6 well plates for 6 h. Cells were collected, washed with cold PBS, lysed in RIPA buffer (Boston BioProducts BP-115D) with protease/phosphatase inhibitor cocktail (Roche 05892791001/Roche 04906837001) and centrifuged at 13000 RPM for 20 min to precipitate insoluble material. The supernatant fraction was diluted in SDS-PAGE loading buffer (Beyotime Bio P0015) and 20 μL of each sample was resolved on 4-12% Bis-Tris SDS-PAGE gels (Novex, WG1402BOX). Resolved samples were transferred to nitrocellulose membranes by wet electro-transfer method at 250 mV for 1.5 h. The membrane was blocked with LICOR blocking buffer (LI-COR, 927-50000) for 1 hour, washed three times with TBST (CST #99975) for 5 minutes each and incubated with primary antibody prepared in block buffer with 0.1% Tween-20 (Solarbio, P8220) at 4° C. overnight. Ikaros antibody was rabbit monoclonal D6N9Y (CST #14859), at 1:1000 dilution. Aiolos antibody was rabbit monoclonal D1C1E (CST #15103), at 1:1000 dilution. Signal was normalized to mouse anti-beta-Actin monoclonal 8H10D10 (CST #3700) used at 1:10,000 dilution. After incubation in primary antibodies, membranes were washed three times with TBST, 5 minutes each, incubated with fluorescently labeled secondary antibodies anti-rabbit IgG (Licor, 926-32211) at 1:5000 dilution; anti-mouse IgG (LI-COR, 926-68070) at 1:5000 dilution, for 1 hour at RT. After incubation in secondary, membranes were washed three times with TBST, 5 minutes each and read on LICOR Odyssey imager. Data was reported as signal for Ikaros or Aiolos relative to signal for actin, and normalized to DMSO-treated control.

[2] = molecular target: T3, Aiolos (protein product of gene IKZF3) (Homo sapiens, UniProt Q96SW2+Q9UKT9); test: Quantification of Aiolos degradation in OCI-LY10 cells (quantitative immunoblotting); conditions: 6 h treatment
T3 construct: endogenous in cells; host or cells: OCI-LY10
Method: as §1

[3] = 24 hrs incubation, read-out: IRAK4 degradation in OCI-LY10 at 24 hrs: DC50

T2 sequence (Q13422 whole entry): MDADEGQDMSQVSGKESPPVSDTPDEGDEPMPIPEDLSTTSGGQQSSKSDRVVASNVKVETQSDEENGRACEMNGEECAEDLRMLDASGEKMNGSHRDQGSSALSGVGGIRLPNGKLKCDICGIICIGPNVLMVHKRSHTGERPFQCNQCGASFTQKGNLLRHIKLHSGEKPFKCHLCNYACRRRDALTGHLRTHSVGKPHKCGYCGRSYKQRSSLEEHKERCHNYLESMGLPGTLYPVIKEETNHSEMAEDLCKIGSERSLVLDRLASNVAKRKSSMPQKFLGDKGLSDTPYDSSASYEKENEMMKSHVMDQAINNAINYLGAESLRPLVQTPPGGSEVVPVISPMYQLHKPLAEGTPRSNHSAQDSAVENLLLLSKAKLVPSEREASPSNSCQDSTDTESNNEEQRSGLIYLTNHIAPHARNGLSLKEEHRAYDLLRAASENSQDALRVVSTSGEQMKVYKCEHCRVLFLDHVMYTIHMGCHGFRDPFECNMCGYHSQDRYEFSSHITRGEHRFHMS
T2 sequence (Q96SW2 whole entry): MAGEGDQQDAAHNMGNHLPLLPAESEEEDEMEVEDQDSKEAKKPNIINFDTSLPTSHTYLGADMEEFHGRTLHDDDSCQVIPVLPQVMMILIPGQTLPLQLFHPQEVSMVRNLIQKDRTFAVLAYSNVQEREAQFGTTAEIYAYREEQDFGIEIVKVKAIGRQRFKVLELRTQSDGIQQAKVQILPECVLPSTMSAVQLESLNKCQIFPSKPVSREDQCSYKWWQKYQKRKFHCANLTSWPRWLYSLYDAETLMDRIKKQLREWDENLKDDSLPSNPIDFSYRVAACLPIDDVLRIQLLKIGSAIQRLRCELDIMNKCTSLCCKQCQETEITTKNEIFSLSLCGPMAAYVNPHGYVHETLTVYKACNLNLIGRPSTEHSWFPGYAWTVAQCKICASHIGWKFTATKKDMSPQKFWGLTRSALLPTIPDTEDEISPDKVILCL
T2 sequence (Q16531 whole entry partner): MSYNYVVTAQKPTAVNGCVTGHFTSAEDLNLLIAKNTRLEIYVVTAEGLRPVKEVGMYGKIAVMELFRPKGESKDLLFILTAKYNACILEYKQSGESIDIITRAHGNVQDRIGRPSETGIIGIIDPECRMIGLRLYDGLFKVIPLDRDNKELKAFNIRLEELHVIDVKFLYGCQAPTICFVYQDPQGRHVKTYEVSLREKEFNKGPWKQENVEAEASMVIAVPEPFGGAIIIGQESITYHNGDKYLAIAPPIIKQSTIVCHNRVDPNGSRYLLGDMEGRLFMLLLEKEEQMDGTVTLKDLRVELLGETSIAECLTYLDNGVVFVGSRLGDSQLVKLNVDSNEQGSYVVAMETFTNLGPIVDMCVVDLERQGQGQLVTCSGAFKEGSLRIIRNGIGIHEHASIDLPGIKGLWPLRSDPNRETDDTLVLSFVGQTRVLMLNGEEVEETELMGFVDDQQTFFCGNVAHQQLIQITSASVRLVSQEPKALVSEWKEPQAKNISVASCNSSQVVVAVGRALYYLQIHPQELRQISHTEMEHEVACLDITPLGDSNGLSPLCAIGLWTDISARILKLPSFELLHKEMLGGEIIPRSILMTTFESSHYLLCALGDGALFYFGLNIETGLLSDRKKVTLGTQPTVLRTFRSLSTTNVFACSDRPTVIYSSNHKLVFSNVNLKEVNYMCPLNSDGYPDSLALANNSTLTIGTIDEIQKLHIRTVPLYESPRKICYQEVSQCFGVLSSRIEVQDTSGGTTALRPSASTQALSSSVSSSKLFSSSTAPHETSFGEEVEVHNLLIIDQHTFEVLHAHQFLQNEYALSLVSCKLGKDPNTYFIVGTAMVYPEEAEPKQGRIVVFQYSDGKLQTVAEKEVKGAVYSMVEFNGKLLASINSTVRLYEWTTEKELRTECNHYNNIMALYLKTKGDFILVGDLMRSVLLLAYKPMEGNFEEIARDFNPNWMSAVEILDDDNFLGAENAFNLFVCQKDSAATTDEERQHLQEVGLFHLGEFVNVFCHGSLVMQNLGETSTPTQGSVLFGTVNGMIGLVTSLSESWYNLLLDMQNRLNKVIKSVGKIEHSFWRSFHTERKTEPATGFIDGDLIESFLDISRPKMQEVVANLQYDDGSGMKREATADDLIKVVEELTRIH
T3 sequence (Q9UKT9 whole entry): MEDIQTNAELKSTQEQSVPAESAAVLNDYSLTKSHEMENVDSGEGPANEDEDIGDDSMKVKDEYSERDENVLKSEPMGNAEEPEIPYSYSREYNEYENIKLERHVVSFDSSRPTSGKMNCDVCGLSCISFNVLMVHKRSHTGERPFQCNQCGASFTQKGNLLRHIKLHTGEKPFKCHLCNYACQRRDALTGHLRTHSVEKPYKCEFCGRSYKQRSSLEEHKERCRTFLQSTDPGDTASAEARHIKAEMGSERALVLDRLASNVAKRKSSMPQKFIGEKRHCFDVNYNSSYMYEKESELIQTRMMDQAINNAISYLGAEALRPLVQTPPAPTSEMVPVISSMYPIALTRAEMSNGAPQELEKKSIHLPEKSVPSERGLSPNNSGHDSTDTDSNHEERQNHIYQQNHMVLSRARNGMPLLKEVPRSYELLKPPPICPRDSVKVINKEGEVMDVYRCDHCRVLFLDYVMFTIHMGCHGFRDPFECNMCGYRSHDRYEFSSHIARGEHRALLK
T3 sequence (Q96SW2 whole entry): as the sequence (Q96SW2 whole entry) above
T3 sequence (Q16531 whole entry partner): as the sequence (Q16531 whole entry partner) above

SMILES | DC50 (IRAK4; [3]) [nM] | DC50 [1] [nM] | DC50 [2] [nM] | DC50 (IRAK4; 4 hrs incubation, read-out: IRAK4 degradation in OCI-LY10 at 4 hrs: DC50) [nM]
CC(C)(O)c1cc2nc([C@H]3CC[C@H](CN4CC5(CC(CCNc6cccc7c6C(=O)N([C@@H]6CCC(=O)NC6=O)C7=O)C5)C4)CC3)sc2cc1NC(=O)c1cccc(C(F)(F)F)n1 (single isomer, unassigned) [I-65] | < 50 | < 50 | < 50 | –
CC(C)(O)c1cc2nc([C@H]3CC[C@H](CN4CC5(CC(CCNc6cccc7c6C(=O)N([C@H]6CCC(=O)NC6=O)C7=O)C5)C4)CC3)sc2cc1NC(=O)c1cccc(C(F)(F)F)n1 (single isomer, unassigned) [I-66] | < 50 | < 50 | < 50 | –
CC(C)(O)c1cc2nc([C@H]3CC[C@H](CN4CC5(CC(CCNc6cccc7c6C(=O)N(C6CCC(=O)NC6=O)C7=O)C5)C4)CC3)sc2cc1NC(=O)c1cccc(C(F)(F)F)n1 (stereo partly drawn) [I-3, N-[2-[4-[[6-[2-[[2-(2,6-dioxo-3-piperidyl)-1,3-dioxo-isoindolin-4-yl]amino]ethyl]-2-azaspiro[3.3]heptan-2-yl]methyl]cyclohexyl]-5-(1-hydroxy-1-methyl-ethyl)-1,3-benzothiazol-6-yl]-6-(trifluoromethyl)pyridine-2-carboxamide] | < 50 | < 50 | < 50 | 50 to 100
CC(C)(O)c1cc2nc(N3CCC(CN4CCC5(CC4)CC(Nc4cccc6c4C(=O)N(C4CCC(=O)NC4=O)C6=O)C5)CC3)sc2cc1NC(=O)c1cccc(C(F)(F)F)n1 (stereo not drawn) [I-4] | – | < 50 | < 50 | –
CC(C)(O)c1cc2nc([C@H]3CC[C@H](CN4CCC5(CC4)CC(CCNc4cccc6c4C(=O)N(C4CCC(=O)NC4=O)C6=O)C5)CC3)sc2cc1NC(=O)c1cccc(C(F)(F)F)n1 (stereo partly drawn) [I-5] | – | < 50 | < 50 | –
CN(CCCO[C@H]1C[C@H](Nc2cccc3c2C(=O)N(C2CCC(=O)NC2=O)C3=O)C1)C[C@H]1CC[C@H](c2nc3cc(C(C)(C)O)c(NC(=O)c4cccc(C(F)(F)F)n4)cc3s2)CC1 (stereo partly drawn) [I-7] | – | < 50 | < 50 | –
COc1cc2nc([C@H]3CC[C@H](CN4CC5(CC(CCNc6cccc7c6C(=O)N(C6CCC(=O)NC6=O)C7=O)C5)C4)CC3)sc2cc1NC(=O)c1cccc(C(C)(F)F)n1 (stereo partly drawn) [I-8] | – | < 50 | < 50 | –
COc1cc2nc([C@H]3CC[C@H](CN4CCC(CCNc5cccc6c5C(=O)N(C5CCC(=O)NC5=O)C6=O)CC4)CC3)sc2cc1NC(=O)c1cccc(C(C)(F)F)n1 (stereo partly drawn) [I-9] | – | 50 to 100 | < 50 | –
COc1cc2nc([C@H]3CC[C@H](CN4CC5(CC(CCNc6cccc7c6C(=O)N(C6CCC(=O)NC6=O)C7=O)C5)C4)CC3)sc2cc1NC(=O)c1cccc(C(F)(F)F)n1 (stereo partly drawn) [I-10] | – | < 50 | < 50 | –
COc1cc2nc([C@H]3CC[C@H](CN4CC5(CCC(CNc6cccc7c6C(=O)N(C6CCC(=O)NC6=O)C7=O)CC5)C4)CC3)sc2cc1NC(=O)c1cccc(C(C)(F)F)n1 (stereo partly drawn) [I-11] | – | 100 to 500 | 50 to 100 | –
COc1cc2nc([C@H]3CC[C@H](CN4CCC5(CC4)CC(CCNc4cccc6c4C(=O)N(C4CCC(=O)NC4=O)C6=O)C5)CC3)sc2cc1NC(=O)c1cccc(C)n1 (stereo partly drawn) [I-12] | – | < 50 | < 50 | –
CC(C)(O)c1cc2nc([C@H]3CC[C@H](CN4CC5(CC(CCCNc6cccc7c6C(=O)N(C6CCC(=O)NC6=O)C7=O)C5)C4)CC3)sc2cc1NC(=O)c1cccc(C(F)(F)F)n1 (stereo partly drawn) [I-13] | – | < 50 | < 50 | –
COc1cc2nc([C@H]3CC[C@H](CN(C)[C@H]4CC[C@@]5(CC4)C[C@@H](CNc4cccc6c4C(=O)N(C4CCC(=O)NC4=O)C6=O)C5)CC3)sc2cc1NC(=O)c1cccc(C(F)(F)F)n1 (stereo partly drawn) [I-14] | – | 50 to 100 | < 50 | –
COc1cc2nc([C@H]3CC[C@H](CN4CCC5(CC4)CC(Nc4cccc6c4C(=O)N(C4CCC(=O)NC4=O)C6=O)C5)CC3)sc2cc1NC(=O)c1cccc(C)n1 (stereo partly drawn) [I-15] | – | 100 to 500 | 50 to 100 | –
COc1cc2nc([C@H]3CC[C@H](CN4CC5(CC(CCNc6cccc7c6C(=O)N(C6CCC(=O)NC6=O)C7=O)C5)C4)CC3)sc2cc1NC(=O)c1ccnc(C)n1 (stereo partly drawn) [I-16] | – | < 50 | – | –
COc1cc2nc([C@H]3CC[C@H](CN4CCC5(CC4)CC(CCNc4cccc6c4C(=O)N(C4CCC(=O)NC4=O)C6=O)C5)CC3)sc2cc1NC(=O)c1ccnc(C)n1 (stereo partly drawn) [I-17] | – | < 50 | < 50 | –
CC(C)(O)c1cc2nc(N3CCC(CN4CCC5(CC4)CC(CCNc4cccc6c4C(=O)N(C4CCC(=O)NC4=O)C6=O)C5)CC3)sc2cc1NC(=O)c1cccc(C(F)(F)F)n1 (stereo not drawn) [I-18] | – | < 50 | < 50 | –
CC(C)(O)c1cc2nc(N3CCC(CN4CC5(CC(CCNc6cccc7c6C(=O)N(C6CCC(=O)NC6=O)C7=O)C5)C4)CC3)sc2cc1NC(=O)c1cccc(C(F)(F)F)n1 (stereo not drawn) [I-36] | – | < 50 | < 50 | –
CC(C)(O)c1cc2nc(N3CC(CN4CCC5(CC4)CC(CNc4cccc6c4C(=O)N(C4CCC(=O)NC4=O)C6=O)C5)C3)sc2cc1NC(=O)c1cccc(C(F)(F)F)n1 (stereo not drawn) [I-38] | – | < 50 | < 50 | –
COc1cc2nc([C@H]3CC[C@H](CN4CCC(O[C@H]5C[C@H](Nc6cccc7c6C(=O)N(C6CCC(=O)NC6=O)C7=O)C5)CC4)CC3)sc2cc1NC(=O)c1cccc(C(F)(F)F)n1 (stereo partly drawn) [I-39] | – | < 50 | < 50 | –
CC(C)(O)c1nc2nc([C@H]3CC[C@H](CN4CC5(CC(CCNc6cccc7c6C(=O)N(C6CCC(=O)NC6=O)C7=O)C5)C4)CC3)sc2cc1NC(=O)c1cccc(C(F)(F)F)n1 (stereo partly drawn) [I-43] | – | < 50 | < 50 | –
CC(C)(O)c1cc2nc(N3CC(CN4CC5(CC(CNc6cccc7c6C(=O)N(C6CCC(=O)NC6=O)C7=O)C5)C4)C3)sc2cc1NC(=O)c1cccc(C(F)(F)F)n1 (stereo not drawn) [I-44] | – | < 50 | < 50 | –
CC(C)(O)c1cc2nc([C@H]3CC[C@H](CN4CC5(CC(CCNc6cccc7c6C(=O)N(C6CCC(=O)NC6=O)C7=O)C5)C4)CC3)sc2cc1NC(=O)c1cccc(C(C)(F)F)n1 (stereo partly drawn) [I-56] | < 50 | < 50 | < 50 | –
CC(C)(O)c1cc2nc([C@H]3CC[C@H](CN4CC5(CC(CCNc6cccc7c6C(=O)N(C6CCC(=O)NC6=O)C7=O)C5)C4)CC3)sc2cc1NC(=O)c1cnn2ccc(N3C[C@H]4C[C@@H]3CO4)nc12 (stereo partly drawn) [I-61] | > 1000 | – | – | –
